Laboratory results published in US20230065562A1, “DUAL CONTROLS FOR THERAPEUTIC CELL ACTIVATION OR ELIMINATION” (Bellicum Pharmaceuticals, Inc., priority 2015, published 2023).

How the values were obtained:
[1] = test system: iCasp9M-transduced EBV-CTLs; assay: CID-induced apoptosis / loss of GFP+ cells in iCasp9M-transduced EBV-CTLs; assay type: cell-based, human
Method: CID (AP20187; ARIAD Pharmaceuticals) at indicated concentrations was added to transfected 293T cells or transduced CTLs. Adherent and nonadherent cells were harvested and washed with annexin binding buffer (BD Pharmingen, San Jose, Calif.). Cells were stained with annexin-V and 7-amino-actinomycin D (7-AAD) for 15 minutes according to the manufacturer's instructions (BD Pharmingen). Within 1 hour after staining, cells were analyzed by flow cytometry using CellQuest software (Becton Dickinson).
Inducible iCasp9M proficiency in CTLs was tested by monitoring loss of GFP-expressing cells after administration of CID; 91.3% (range, 89.5%-92.6% in 5 different donors) of GFP^+ cells were eliminated after a single 10-nM dose of CID. […] In all experiments, CTLs that survived CID treatment had low transgene expression with a 70% (range, 55%-82%) reduction in mean fluorescence intensity of GFP after CID. No further elimination of the surviving GFP^+ T cells could be obtained by an antigenic stimulation followed by a second 10-nM dose of CID. Therefore, the non-responding CTLs most likely expressed insufficient iCasp9M for functional activation by CID. To investigate the correlation between low levels of expression and CTL non-response to CID, CTLs were sorted for low, intermediate, and high expression of the linked marker gene GFP and mixed 1:1 with nontransduced CTLs from the same donor to allow for an accurate quantitation of the number of transduced T cells responding to CID-induced apoptosis.
The number of transduced T cells eliminated increased with the level of GFP transgene expression (see FIGS. 4A, 4B and 4C). To determine the correlation between transgene expression and function of iCasp9M, iCasp9M IRES.GFP-transduced EBV-CTL were selected for low (mean 21), intermediate (mean 80) and high (mean 189) GFP expression. Selected T-cells were incubated overnight with 10 nM CID and subsequently stained with annexin V and 7-AAD. Indicated are the percentages of annexin V+/7-AAD− and annexin V+/7-AAD+ T−. Selected T-cells were mixed 1:1 with non-transduced T-cells and incubated with 10 nM CID following antigenic stimulation. Indicated is the percentage of residual GFP-positive T-cells on day 7.
For GFPhigh-selected cells, 10 nM CID led to deletion of 99.1% (range, 98.7%-99.4%) of transduced cells. On the day of antigen stimulation, F-Casp9M.I.GFP-transduced CTLs were either untreated or treated with 10 nM CID. Seven days later, the response to CID was measured by flow cytometry for GFP. The percentage of transduced T cells was adjusted to 50% to allow for an accurate measurement of residual GFP^+ cells after CID treatment. The responses to CID in unselected (top row of and GFPhigh-selected CTLs (bottom row of was compared. The percentage of residual GFP^+ cells is indicated.
After overnight incubation with 10 nM CID, F-Casp9M.I.GFPhigh-transduced T cells had apoptotic characteristics such as cell shrinkage and fragmentation by microscopic evaluation. […] A representative example of 3 separate experiments is shown.

[2] = test system: transduced T cells (human PBMCs); assay: IL-6 ELISA as indicator of MC activity in transduced T cells; assay type: cell-based
[3] = test system: T cells expressing ΔC9 alone (pBP1501); assay: T cell killing assay with caspase 3/7 green reagent monitored by IncuCyte, negative control ΔC9; assay type: cell-based, human; settings: increasing doses, FIG. 108B
Text: To determine the functionality of these switches in activated T cells, retroviral supernatants were produced and transduced into PBMCs activated from 3 separate donors.

[4] = test system: SLL-peptide pulsed T2 cells; assay: IL-2 secretion of iMC-PRAME TCR T cells with SLL-peptide pulsed T2 cells; assay type: cell-based; settings: FIG. 117D
[5] = test system: HLA-A2+PRAME+ U2OS osteosarcoma; assay: iMC-PRAME TCR cytotoxicity and IL-2 secretion against U2OS; assay type: cell-based
Text: The Go156 TCR is a negative control TCR.

[6] = test system: HLA-B7+Bob-1+ U266 multiple myeloma; assay: iMC-Bob-1 TCR cytotoxicity and IL-2 secretion against U266; assay type: cell-based
Text: FIG. 120: (A) iMC-Bob-1 TCR-mediated cytotoxicity against HLA-B7^+Bob-1^+ U266 multiple myeloma is rimiducid-independent. […] Go156 TCR is a negative control TCR.

[7] = target: iC9 (pBP220) (Homo sapiens, UniProt P62942, F37V); assay: SRα-SEAP assay of drug specificity, iC9 switch, 293 cells; settings: SRα-SEAP reporter, FIG. 108A
[8] = target: iRC9 (pBP1310 & 1311) (Homo sapiens, UniProt P42345+P62942); assay: SRα-SEAP assay of drug specificity, iRC9 switch, 293 cells; settings: SRα-SEAP reporter, FIG. 108A
[9] = target: iRmC9 (pBP1327 & pBP1328) (Homo sapiens, UniProt P42345+P62942, F37V); assay: SRα-SEAP assay of drug specificity, iRmC9 switch, 293 cells; settings: SRα-SEAP reporter
[10] = GFPhigh-selected, overnight 10 nM CID, mean
[11] = representative example of 3 experiments

Sequence of iRC9 (pBP1310 & 1311) (P42345 2025-2113): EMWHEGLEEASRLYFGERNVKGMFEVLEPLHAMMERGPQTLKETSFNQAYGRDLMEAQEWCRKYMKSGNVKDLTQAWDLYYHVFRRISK
Sequence of iRC9 (pBP1310 & 1311) (P62942 2-107): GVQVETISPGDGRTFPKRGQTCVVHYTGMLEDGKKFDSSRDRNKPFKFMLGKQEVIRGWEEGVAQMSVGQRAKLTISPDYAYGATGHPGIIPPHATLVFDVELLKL
Sequence of iRC9 (pBP1310 & 1311) (P55211 135-416 partner limits assumed): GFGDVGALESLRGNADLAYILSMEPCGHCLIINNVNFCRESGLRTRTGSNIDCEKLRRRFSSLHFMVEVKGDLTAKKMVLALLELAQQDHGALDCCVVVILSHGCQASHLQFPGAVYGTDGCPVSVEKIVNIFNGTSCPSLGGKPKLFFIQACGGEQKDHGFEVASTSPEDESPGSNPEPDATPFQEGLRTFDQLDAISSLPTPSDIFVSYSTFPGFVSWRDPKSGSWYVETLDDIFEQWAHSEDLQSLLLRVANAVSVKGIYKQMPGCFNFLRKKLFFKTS
Sequence of iRmC9 (pBP1327 & pBP1328) (P42345 2025-2113): as the sequence (P42345 2025-2113) above
Sequence of iRmC9 (pBP1327 & pBP1328) (P62942 2-107 F37V): as the sequence (P62942 2-107) above, with F36V counted along it
Sequence of iRmC9 (pBP1327 & pBP1328) (P55211 135-416 partner limits assumed): as the sequence (P55211 135-416 partner limits assumed) above
Sequence of iC9 (pBP220) (P62942 2-108 F37V): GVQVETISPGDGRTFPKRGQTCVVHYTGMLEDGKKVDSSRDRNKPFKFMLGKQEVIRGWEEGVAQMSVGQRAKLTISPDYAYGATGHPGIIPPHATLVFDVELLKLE
Sequence of iC9 (pBP220) (P55211 135-416 partner limits assumed): as the sequence (P55211 135-416 partner limits assumed) above

Structure (SMILES) | concentration sufficient to obtain the maximal deletion effect ([1]; F-Casp9M.I.GFPhigh, day 7) | deletion of transduced cells ([1]; GFPhigh-selected cells, 10 nM CID) | apoptotic (annexin-V+/7-AAD−) phenotype [1, 10] | necrotic (annexinV+/7-AAD+) phenotype [1, 10] | reduction in mean fluorescence intensity of GFP in surviving CTLs ([1]; after CID) | apoptotic phenotype (annexin V+, 7-AAD−) [1, 11] | necrotic phenotype (annexin V+, 7-AAD+) [1, 11] | GFP+ cells eliminated ([1]; single 10-nM dose of CID, unselected CTLs, 5 donors) | MC activity (secreted IL-6) in iMC+CARζ-T cells ([2]; 24 hours) | MC activity (secreted IL-6) in MC-rap-T cells ([2]; pBP1440, 24 hours) | activity of negative control ΔC9 alone (pBP1501) in T cells [3] | IL-2 secretion, PRAME TCR with iMC [4] | iMC-PRAME TCR-mediated cytotoxicity against U2OS ([5]; FIG. 119A) | IL-2 secretion, PRAME TCR with rimiducid-driven iMC costimulation, U2OS ([5]; FIG. 119B) | iMC-Bob-1 TCR-mediated cytotoxicity against U266 ([6]; FIG. 120A) | IL-2 secretion, Bob-1 TCR with rimiducid-driven iMC costimulation, U266 ([6]; FIG. 120B) | activation of the iC9 switch [7] | ligand required to activate the iRC9 switch [8] | activation of the iRmC9 switch [9]
CC[C@H](C(=O)N1CCCC[C@H]1C(=O)O[C@H](CCc1ccc(OC)c(OC)c1)c1cccc(OCC(=O)NCC(CNC(=O)COc2cccc([C@@H](CCc3ccc(OC)c(OC)c3)OC(=O)[C@@H]3CCCCN3C(=O)[C@@H](CC)c3cc(OC)c(OC)c(OC)c3)c2)CN(C)C)c1)c1cc(OC)c(OC)c(OC)c1 [AP20187] | 1 nM | 99.1% | 64% | 30% | 70% | 64% | 32% | 91.3% | – | – | – | – | – | – | – | – | – | – | –
CC[C@H](C(=O)N1CCCC[C@H]1C(=O)O[C@H](CCc1ccc(OC)c(OC)c1)c1cccc(OCC(=O)NCCNC(=O)COc2cccc([C@@H](CCc3ccc(OC)c(OC)c3)OC(=O)[C@@H]3CCCCN3C(=O)[C@@H](CC)c3cc(OC)c(OC)c(OC)c3)c2)c1)c1cc(OC)c(OC)c(OC)c1 [rimiducid] | – | – | – | – | – | – | – | – | stimulated strongly | not stimulated | not active | maximal IL-2 secretion | rimiducid-independent | maximal IL-2 secretion | rimiducid-independent | maximal IL-2 secretion | can activate | > 100 nM | can activate
